Measured values published in US10180423B2, “Micropillar arrays for assaying myelination” (The Regents of the University of California, priority 2012, dated 2019).
Where a name gives a salt, the structure may show the parent alone. Read-outs that look alike come from different tables or passages of the source.

Columns and labels:
[1] = system: purified oligodendroglia cocultured with purified neurons
Source text: In the cocultures, myelin internodes can be routinely identified by the “tube-like” structures (immunostained for myelin-specific proteins) formed by the oligodendrocytes. […] Overall, the coculture system recapitulates the timing of oligodendrocyte development and myelination in vivo and represents a powerful tool to validate compounds and factors that may both promote and inhibit oligodendroglial development. […] Additionally, the ability to quantify a functional readout for differentiation and myelination by oligodendrocytes, provides the unique opportunity to uncouple the axonal contribution on myelination.
Cultures were immunostained after 7 days in vitro and analyzed for myelin basic protein (red).

oligodendroglia = conditions: polystyrene nanofibers, no axons
Procedure: The exquisite flexibility in the design of our nanofibers guarantees constant uniformity and density of fibers in the experimental design and any effects from compounds tested could be attributed solely to direct influences on oligodendroglia (FIG. 2), without confounding effects from neurons.
Nanofibers are patterned and deposited into a 24-well format and placed under an automated fluorescence microscope with incubation chamber. Upon addition of oligodendroglia and small molecules, cells cultured with the nanofibers can be analyzed for effects on proliferation, survival, differentiation, and myelination in real time. […]
To initiate a screen, a candidate list of known molecules and chemical inhibitors thought to play a role in promoting oligodendrocyte differentiation and myelination was compiled, and applied various FDA approved compounds in the treatment of psychiatric disorders. […] Additionally, the ability to quantify a functional readout for differentiation and myelination by oligodendrocytes, provides the unique opportunity to uncouple the axonal contribution on myelination.
Oligodendrocyte differentiation and myelination were examined on our nanofiber platform (a). […] Cultures were immunostained after 7 days in vitro and analyzed for myelin basic protein (red).

[2] = system: oligodendrocyte precursor cells (OPCs); conditions: for number of red "myelin rings" generated by oligodendrocytes (MBP positive staining) compared to control: compound added at 4 div for two days, images at 6 div; for generation of "myelin rings" on the micropillar platform: OPCs plated on micropillar arrays
Source text: Using Axiovision software by Zeiss, we can automate the detection and quantification of the number of myelin rings without any of the confounding issues associated with the nanofibers (i.e. length of internodes, interfering cell processes, cell bodies, etc.). Essentially, oligodendrocyte precursor cells (OPCs) will be visualized as green rings whereas oligodendrocytes are indicated as red rings (FIG. 4C).
(A-C) Immunostaining for myelination by oligodendrocytes (red, MBP positive staining) surrounding micropillars. Oligodendrocytes were cultured on micropillars for total of 6 days in vitro (div) and received compounds known to enhance differentiation at 4 div for two days. […] Images were acquired at 6 div. Scale bar, 50 μm.

Row | Structure (SMILES) | differentiation and myelination of neuronal axons ([1]; purified oligodendroglia with purified neurons) | oligodendrocyte differentiation and myelination (myelin basic protein immunostaining) ([1]; quetiapine fumarate 100 nM, 7 days in vitro, Oligodendrocyte-DRG cocultures) | differentiation of oligodendrocytes and myelination of the nanofibers (oligodendroglia) | number of red "myelin rings" generated by oligodendrocytes (MBP positive staining) compared to control ([2]; 1 μM) | generation of "myelin rings" on the micropillar platform [2] | number of red "myelin rings" generated by oligodendrocytes (MBP positive staining) compared to control ([2]; 30 ng/mL)
1 | OCCOCCN1CCN(C2=Nc3ccccc3Sc3ccccc32)CC1 [quetiapine fumarate] | significantly enhances | significantly accelerated | greatly enhanced | increases | significantly enhanced | 
2 | N[C@@H](Cc1cc(I)c(Oc2ccc(O)c(I)c2)c(I)c1)C(=O)O [thyroid hormone] |  |  |  |  | significantly enhanced | increases
